These results are taken from patent US20080188483A1, “Compounds and Compositions as Protein Kinase Inhibitors” (IRM LLC, priority 2006, published 2008).

Test [1] has as its system b-Raf (A375 cells, V599E mutation). Kind of test: b-Raf cellular assay (phosphorylation of MEK in A375 cells). Type of test: cell-based. Conditions: Homo sapiens, A-375, phospho-MEK. The method, then:
Compounds of the invention are tested in A375 cells for their ability to inhibit phosphorylation of MEK. A375 cell line (ATCC) is derived from a human melanoma patient and it has a V599E mutation on the B-Raf gene. The levels of phosphorylated MEK are elevated due to the mutation of B-Raf. Sub-confluent to confluent A375 cells are incubated with compounds for 2 hours at 37° C. in serum free medium. Cells are then washed once with cold PBS and lysed with the lysis buffer containing 1% Triton X100. After centrifugation, the supernatants are subjected to SDS-PAGE, and then transferred to nitrocellulose membranes. The membranes are then subjected to western blotting with anti-phospho-MEK antibody (ser217/221) (Cell Signaling). The amount of phosphorylated MEK is monitored by the density of phospho-MEK bands on the nitrocellulose membranes.

Another test concerns the target b-Raf (Homo sapiens, UniProt P15056). Kind of test: b-Raf enzymatic assay. Type of test: biochemical. The method, then:
Compounds of the invention are tested for their ability to inhibit the activity of b-Raf. The assay is carried out in 384-well MaxiSorp plates (NUNC) with black walls and clear bottom. The substrate, IκBα: is diluted in DPBS (1:750) and 15 μl is added to each well. The plates are incubated at 4° C. overnight and washed 3 times with TBST (25 mM Tris, pH 8.0, 150 mM NaCl and 0.05% Tween-20) using the EMBLA plate washer. Plates are blocked by Superblock (15 μl/well) for 3 hours at room temperature, washed 3 times with TBST and pat-dried. Assay buffer containing 20 μM ATP (10 μl) is added to each well followed by 100 nl or 500 nl of compound. B-Raf is diluted in the assay buffer (1 μl into 25 μl) and 10 μl of diluted b-Raf is added to each well (0.4 μg/well). The plates are incubated at room temperature for 2.5 hours. The kinase reaction is stopped by washing the plates 6 times with TBST. Phosph-IκBα (Ser32/36) antibody is diluted in Superblock (1:10,000) and […] is added to each well. The plates are incubated at 4° C. overnight and washed 6 times with TBST. AP-conjugated goat-anti-mouse IgG is diluted in Superblock (1:1,500) and 15 μl is added to each well. Plates are incubated at room temperature for 1 hour and washed 6 times with TBST. […] Plates are read on Acquest or Analyst GT using a Fluorescence Intensity Program (Excitation 455 nm, Emission 580 nm).

In test [2] the target is T1, PDGFRβ (Ba/F3-Tel-PDGFRβ) (Homo sapiens, UniProt P09619).
T1 construct: expressed in transfected cells; host or cells: Ba/F3; the other entry of the earlier key: ETV6 (P41212, Transcription factor ETV6)
Kind of test: PDGFRβ cellular assay (Ba/F3-Tel-PDGFRβ proliferation). Conditions: read-out: IC50 against PDGFRβ in the cellular assay. Type of test: cell-based.

In test [3] the target is T2, T315I Bcr-abl (Ba/F3 cells) (Homo sapiens, UniProt P00519, T315I).
T2 construct: expressed in transfected cells; host or cells: Ba/F3; the other entry of the earlier key: BCR (P11274, Breakpoint cluster region protein)
Kind of test: Proliferation of Ba/F3 cells expressing mutant Bcr-abl T315I. The class given is cell-based. The method, then: (§1) 2D-p210 cells are plated into 96 well TC plates at a density of 15,000 cells per well. 50 μL of two fold serial dilutions of the test compound (Cmax is 40 μM) are added to each well (STI571 is included as a positive control). After incubating the cells for 48 hours at 37° C., 5% CO2, 15 μL of MTT (Promega) is added to each well and the cells are incubated for an additional 5 hours. The optical density at 570 nm is quantified spectrophotometrically and IC50 values, the concentration of compound required for 50% inhibition, determined from a dose response curve.
(§2) Compounds of the invention are tested for their antiproliferative effect on Ba/F3 cells expressing either wild type or the mutant forms of BCR-Abl (G250E, E255V, T315I, F317L, M351T) that confers resistance or diminished sensitivity to STI571. The antiproliferative effect of these compounds on the mutant-BCR-Abl expressing cells and on the non transformed cells were tested at 10, 3.3, 1.1 and 0.37 μM as described above (in media lacking IL3). The IC50 values of the compounds lacking toxicity on the untransformed cells were determined from the dose response curves obtained as describe above.

For test [4], the target named is T3, F317L Bcr-abl (Ba/F3 cells) (Homo sapiens, UniProt P00519, F317L).
T3 construct: expressed in transfected cells; host or cells: Ba/F3; the other entry of the earlier key: BCR (P11274, Breakpoint cluster region protein)
Kind of test: Proliferation of Ba/F3 cells expressing mutant Bcr-abl F317L. Type of test: cell-based. On the procedure: as §1, §2

The target of test [5] is T4, wild type Bcr-abl (Ba/F3 cells) (Homo sapiens, UniProt P00519).
T4 construct: expressed in transfected cells; host or cells: Ba/F3 (murine pro-B cells); the other entry of the earlier key: BCR (P11274, Breakpoint cluster region protein)
Kind of test: Proliferation of Ba/F3 cells expressing wild type Bcr-abl. Type of test: cell-based. On the procedure:
as §1, §2

In test [6] the target is T5, G250E Bcr-abl (Ba/F3 cells) (Homo sapiens, UniProt P00519, G250E).
T5 construct: expressed in transfected cells; host or cells: Ba/F3; the other entry of the earlier key: BCR (P11274, Breakpoint cluster region protein)
Kind of test: Proliferation of Ba/F3 cells expressing mutant Bcr-abl G250E. Type of test: cell-based. The method, then:
as §1, §2

Test [7] concerns the target T6, E255V Bcr-abl (Ba/F3 cells) (Homo sapiens, UniProt P00519, E255V).
T6 construct: expressed in transfected cells; host or cells: Ba/F3; the other entry of the earlier key: BCR (P11274, Breakpoint cluster region protein)
Kind of test: Proliferation of Ba/F3 cells expressing mutant Bcr-abl E255V. The class given is cell-based. The method, then:
as §1, §2

Bounds are passed on as bounds.

Sequence of b-Raf (P15056 whole entry): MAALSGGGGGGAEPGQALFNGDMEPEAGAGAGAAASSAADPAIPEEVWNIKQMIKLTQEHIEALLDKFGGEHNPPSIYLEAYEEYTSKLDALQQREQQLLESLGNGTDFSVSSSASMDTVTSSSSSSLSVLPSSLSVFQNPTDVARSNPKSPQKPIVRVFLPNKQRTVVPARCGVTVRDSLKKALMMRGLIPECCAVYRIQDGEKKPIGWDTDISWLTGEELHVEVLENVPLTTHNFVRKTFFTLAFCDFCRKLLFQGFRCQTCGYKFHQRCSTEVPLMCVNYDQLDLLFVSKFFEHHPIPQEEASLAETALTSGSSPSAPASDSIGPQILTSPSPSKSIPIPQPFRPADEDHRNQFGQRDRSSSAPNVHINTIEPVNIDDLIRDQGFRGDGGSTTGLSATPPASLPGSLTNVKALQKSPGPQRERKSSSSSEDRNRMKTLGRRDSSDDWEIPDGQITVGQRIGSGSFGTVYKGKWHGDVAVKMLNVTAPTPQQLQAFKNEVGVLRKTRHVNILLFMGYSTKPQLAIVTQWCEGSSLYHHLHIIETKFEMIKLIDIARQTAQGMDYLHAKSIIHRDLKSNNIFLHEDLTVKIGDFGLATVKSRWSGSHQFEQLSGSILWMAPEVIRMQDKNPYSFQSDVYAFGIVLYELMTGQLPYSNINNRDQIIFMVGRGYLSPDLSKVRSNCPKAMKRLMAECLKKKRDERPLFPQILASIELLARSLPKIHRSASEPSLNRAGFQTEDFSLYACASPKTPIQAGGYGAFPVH
T1 sequence (P09619 600-962 limits assumed): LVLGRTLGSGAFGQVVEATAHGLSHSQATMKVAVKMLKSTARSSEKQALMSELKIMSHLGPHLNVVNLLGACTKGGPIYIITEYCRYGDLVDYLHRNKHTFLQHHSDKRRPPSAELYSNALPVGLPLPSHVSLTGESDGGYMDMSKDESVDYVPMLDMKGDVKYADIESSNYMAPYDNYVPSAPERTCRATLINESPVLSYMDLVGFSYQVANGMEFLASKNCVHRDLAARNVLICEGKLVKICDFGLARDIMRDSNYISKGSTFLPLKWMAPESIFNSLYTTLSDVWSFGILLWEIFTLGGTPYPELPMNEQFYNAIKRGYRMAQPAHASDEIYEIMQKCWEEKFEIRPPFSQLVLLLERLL

Broadly, the IC50 is the concentration that inhibits the measured activity by half. For `Cc1cn(-c2cc(C(=O)Nc3ccc(C)c(Nc4nccn4-c4ncnc5[nH]ccc45)c3)cc(C(F)(F)F)c2)cn1` [Example 2, 3-(4-methyl-imidazol-1-yl)-N-{4-methyl-3-[1-(7H-pyrrolo[2,3-d]pyrimidin-4-yl)-1H-imidazol-2-ylamino]-phenyl}-5-trifluoromethyl-benzamide], the IC50 in test [1] was 0.032 µM; against b-Raf, 0.002 µM; in test [2], 0.004 µM; in test [3], 0.063 µM; in test [4] it was less than 0.0005 µM; in test [5], less than 0.0005 µM. The results for the IC50 in test [6] and in test [7] were 0.056 µM and 0.043 µM, respectively.
